Reference: patent US7138262B1, “High mannose proteins and methods of making high mannose proteins” (Shire Human Genetic Therapies, Inc., priority 2000, dated 2006)

Experiments:
[1] = tested on: HT-1080 cells producing GA-GCB; test: Roller bottle production of glucocerebrosidase (GA-GCB) in cells treated with mannosidase inhibitors; assay type: cell-based, human; conditions: for Glucocerebrosidase Activity, Harvest 1: medium harvested about every 24 hours, specific activity 2,500 Units/mg
Description: Ten roller bottles (surface area, 1700 cm^2 each) were seeded in Growth Medium (DMEM with 10% calf serum) with HT-1080 cells producing GA-GCB. Following two weeks of growth, the medium was aspirated and 200 mL of fresh Production Medium (DMEM/F12, 0% calf serum) was added to three sets of roller bottles. Two sets of 4 roller bottles were treated with 1 μg/mL of either kifunensine or swainsonine. The third group of two roller bottles received no drug treatment. After approximately 24 hours, the medium from each roller bottle was harvested, pooled and a sample taken for GA-GCB enzymatic activity analysis. This procedure was repeated for seven days. […] Absolute levels of the enzyme, however, varied according to drug treatment group with the following average GA-GCB production levels observed across the seven harvests: 38.3±3.5 mg/L (control, no drug treatment), 24.5±4.0 mg/L (swainsonine, 1 μg/mL), and 21.3±2,8 mg/L (kifunensine, 1 μg/mL).

[2] = tested on: HT-1080 cells producing GA-GCB; test: Isoelectric focusing (IEF) analysis of GA-GCB glycoforms from cells treated with kifunensine or swainsonine; assay type: cell-based, human; conditions: for apparent isoelectric point (pI) of GA-GCB: 0.1 to 2 μg/mL drug, samples from the third day
Description: HT-1080 cells producing GA-GCB were plated in duplicate 6-well plates and the Production Medium adjusted to the following concentrations of kifunensine or swainsonine: 0 (no drug), 0.1, 0.25, 0.5, 1, and 2 μg/mL. The medium was harvested and the cells refed every 24 hours for three days. The samples from the third day were subjected to isoelectric focusing (IEF) analysis. The effect of kifunensine and swainsonine on the molecular charge of GA-GCB is shown by the IEF analysis.

mouse J774E cells = test: Internalization (uptake) of glucocerebrosidase into J774E macrophage cells, with or without mannan; assay type: cell-based; conditions: producing cells treated with 1 μg/mL of drug
Description: GA-GCB produced in HT-1080 cells was used in an in vitro assay to determine uptake efficiency in a mouse macrophage cell line. The specific objective of the experiment was to determine the absolute and mannose receptor-specific uptake of GA-GCB in mouse J774E cells. One day prior to assay, J774E cells were plated at 50,000 cells/cm^2 in 12 well plates in Growth Medium. For the assay, 0.5 mL of Production Medium (DMEM/F12), 0% calf serum) containing 50 nM vitamin D3 (1,2-5, Dihydroxy vitamin D3) was added to the cells. Unpurified GA-GCB (from harvest 4, Table 1) was added to the test wells at a final concentration of 10 μg/mL in the presence or absence of 2 μg/mL mannan (a competitor for the mannose receptor). Three different forms of GA-GCB were used: GA-GCB from cells treated with kifunensine (1 μg/mL), GA-GCB from cells treated with swainsonine (1 μg/mL), and GA-GCB (1 μg/mL) from untreated cells. Control wells received no GA-GCB. The wells were incubated for 4 hours at 37° C., then washed extensively in buffered saline, scraped into GA-GCB enzyme reaction buffer, passed through 2 freeze/thaw cycles, and clarified by centrifugation. The supernantant was then quantitatively tested for enzyme activity and total protein. Internalization of GA-GCB into mouse J744E cells is shown in Table 2 and is reported as Units/mg of cell lysate. […]

[3] = inhibitor 1 μg/ml, across seven harvests

O[C@H]1[C@H]2[C@H](O)CCCN2C[C@H]1O [Swainsonine, swainsonine]
average GA-GCB production level across the seven harvests ([1]; inhibitor 1 μg/mL): 24.5 ± 4.0 mg/L | GA-GCB production level, average ± SD [1, 3]: 24.5 ± 4.0 mg/L | Glucocerebrosidase Activity, Harvest 2 ([1]; inhibitor 1 μg/ml): 17.4 mg/L | Glucocerebrosidase Activity, Harvest 3 ([1]; inhibitor 1 μg/ml): 28.5 mg/L | Glucocerebrosidase Activity, Harvest 4 ([1]; inhibitor 1 μg/ml): 27.0 mg/L | Glucocerebrosidase Activity, Harvest 5 ([1]; inhibitor 1 μg/ml): 22.9 mg/L | Glucocerebrosidase Activity, Harvest 6 ([1]; inhibitor 1 μg/ml): 25.0 mg/L | Glucocerebrosidase Activity, Harvest 7 ([1]; inhibitor 1 μg/ml): 22.3 mg/L | Glucocerebrosidase Activity, Harvest 1 ([1]; inhibitor 1 μg/ml): 28.6 mg/L | apparent isoelectric point (pI) of GA-GCB [2]: concentration dependent increase

O=C1N[C@@H]2[C@@H](O)[C@@H](O)[C@H](O)[C@@H](CO)N2C1=O [Kifunensine, kifunensine]
reduction of GA-GCB production relative to control ([1]; inhibitor 1 μg/mL, average of seven harvests): 44% | Glucocerebrosidase Activity, Average ± Standard Deviation [1, 3]: 21.3 ± 2.8 mg/L | Glucocerebrosidase Activity, Harvest 2 ([1]; inhibitor 1 μg/ml): 22.9 mg/L | Glucocerebrosidase Activity, Harvest 3 ([1]; inhibitor 1 μg/ml): 17.7 mg/L | Glucocerebrosidase Activity, Harvest 4 ([1]; inhibitor 1 μg/ml): 21.2 mg/L | Glucocerebrosidase Activity, Harvest 5 ([1]; inhibitor 1 μg/ml): 18.4 mg/L | Glucocerebrosidase Activity, Harvest 6 ([1]; inhibitor 1 μg/ml): 21.0 mg/L | Glucocerebrosidase Activity, Harvest 7 ([1]; inhibitor 1 μg/ml): 22.0 mg/L | Glucocerebrosidase Activity, Harvest 1 ([1]; inhibitor 1 μg/ml): 26.0 mg/L | greater uptake of GA-GCB with kifunensine than with swainsonine (mouse J774E cells): approximately 2 fold | apparent isoelectric point (pI) of GA-GCB [2]: concentration dependent increase | shift in pI of GA-GCB, compared between the drugs ([2]; highest concentration tested (2 μg/mL)): much larger shift in pI than swainsonine
